Test results taken from US20230183323A1 (BROWN UNIVERSITY, priority 2020, published 2023).

Test system: pseudovirus containing S protein mutations D614G, E484K, United Kingdom, South African, Brazilian
Type: cell-based, SARS-CoV-2

## rhCHI3L1: recombinant human CHI3L1 from a commercial source (R&D Inc.) or generated at Brown University
  cellular integration of Spike proteins of SARS-Cov2 (% of GFP positive cells, FACS): stimulated
